{"source": "patent US20130324533A1", "about": "“METHOD OF DETECTING RESISTANCE TO CANCER THERAPY” (NATIONAL UNIVERSITY OF SINGAPORE, priority 2010, published 2013)", "key": {"HCC2279 cells [1]": {"system": "HCC2279 cells", "assay": "Western blot of apoptotic signaling in NSCLC cells (PARP, caspase 3 cleavage)", "assay_type": "cell-based, human", "details": "0.5 μM gefitinib, […] ABT-737, 24 h, FIG. 25E", "experimental": "FIG. 25E. Western blot showing levels of phospho-EGFR (p-EGFR), PAR P, and caspase 3 cleavage in cells treated for 24 h with 0.5 μM gefitinib, 2.5 μM ABT-737, or both.\nGefitinib and ABT-737 were resuspended in DMSO and kept at −20° C.\nWestern blotting was performed using antibodies against human BIM, CASPASE 3, cleaved CASPASE 3, PARP, phospho-EGFR (Y1068) (all from Cell Signaling Technology), and β-actin (Sigma)."}, "HCC2279 cells [2]": {"system": "HCC2279 cells", "assay": "Trypan blue viability assay in NSCLC cells", "assay_type": "cell-based, human", "experimental": "FIG. 25F. Cell viability of PC9 and HCC2279 treated for 48 h with 0.5 μM gefitinib, 2.5 μM ABT-737, or both. Cell viability was determined by trypan blue exclusion, and plotted as a percentage of the no-drug control. (mean+/−standard error of the mean, *p=0.00004 with respect to gefitinib- and ABT-737-treated PC9 cells).\nPC9 or HCC2279 cells were seeded in a 24-well plate at 5×10^5 or […] cells per wells in triplicate, and treated with DMSO (no drug), 0.5 μM gefitinib, ABT-737 or combination of gefitinib and ABT-737. Trypan blue staining was performed to assess the number of viable cells 48 hours post treatment."}, "[3]": {"system": "K562-BIM^intron+/− and K562-BIM^intron−/− cells", "assay": "Western blot of genome-edited K562 clones (BIMEL, cleaved caspase 3, PARP)", "assay_type": "cell-based, human", "details": "polymorphism-containing K562 cells; FIG. 16H", "experimental": "Western blots were probed with antibody to BIMEL, cleaved caspase 3, PAR P, CrkL, and β-actin. […] Detection was performed with HRP-conjugated secondary antibodies that are specific to rabbit (Sigma) or mouse IgG (Santa Cruz). The membrane was visualized using the Western Lightning chemiluminescence reagent (PerkinElmer). […] In a 6-well plate, 1×10^6 cells were seeded into each well at a density of 2×10^5 cells/ml. After incubation with the appropriate drug for 48 hours, the cells were harvested for western analysis (FIG. 16)."}, "KCL22 cells [4]": {"system": "KCL22 cells", "assay": "Growth curve of CML cell lines cultured with imatinib (FIG. 5F)", "details": "KCL22 cells with deletion, 1 μM imatinib", "excerpt": "CML lines were obtained from ATCC (MEG-01 and KU812), JCRB (NCO2) and DSMZ (KCL22, K562, KYO1, JK1, BV173 and NALM1)."}, "CML patients": {"system": "CML patients", "details": "cited from earlier work"}, "KCL22 cells [5]": {"system": "KCL22 cells", "details": "FIG. 15H and Table H13", "experimental": "Apoptosis was measured using the Annexin V-FITC/7-AAD kit (Beckman Coulter) according to the manufacturer's instructions. Briefly, treated and untreated cells were Annexin V-FITC- and 7-AAD-stained in 1× binding buffer for 15 min at room temperature and then analyzed by flow cytometry."}}, "note": "Where two headings read alike, the source gives them in different places.", "data": [{"smiles": "CN(C)CC[C@H](CSc1ccccc1)Nc1ccc(S(=O)(=O)NC(=O)c2ccc(N3CCN(Cc4ccccc4-c4ccc(Cl)cc4)CC3)cc2)cc1[N+](=O)[O-]", "note": "[ABT-737]", "values": [{"measurement": "TKI-induced apoptotic signaling on addition of ABT-737", "setting": "HCC2279 cells [1]", "result": "enhanced"}, {"measurement": "TKI-induced cell death on addition of ABT-737", "setting": "HCC2279 cells [2]; HCC2279, 0.5 μM gefitinib, […] ABT-737, 48 h, FIG. 25F", "result": "enhanced"}, {"measurement": "ability of imatinib to activate apoptosis on addition of ABT-737", "setting": "[3]", "result": "enhanced"}]}, {"smiles": "COc1cc2ncnc(Nc3ccc(F)c(Cl)c3)c2cc1OCCCN1CCOCC1", "note": "[gefitinib]", "values": [{"measurement": "sensitivity of HCC2279 to gefitinib", "setting": "HCC2279 cells [2]; HCC2279, NSCLC cell line carrying the BIM deletion polymorphism, FIG. 25", "result": "intrinsically resistant"}]}, {"smiles": "Cc1ccc(NC(=O)c2ccc(CN3CCN(C)CC3)cc2)cc1Nc1nccc(-c2cccnc2)n1", "note": "[imatinib]", "values": [{"measurement": "sensitivity of KCL22 cells (growth curve)", "setting": "KCL22 cells [4]", "result": "resistant"}, {"measurement": "rate of incomplete cytogenetic responses", "setting": "CML patients; East-Asian countries", "result": "~50", "unit": "%"}, {"measurement": "rate of incomplete cytogenetic responses", "setting": "CML patients; Europe and North America", "result": 26, "unit": "%"}, {"measurement": "sensitivity of KCL22 cells to imatinib", "setting": "KCL22 cells [5]", "result": "resistant"}]}]}
